Here are results for four compounds from publication PMC9719539, “Single-molecule characterization of subtype-specific β1 integrin mechanics” (Nature Communications, 2022).

Experiment [1] concerns BJ-5ta fibroblasts. Nature of the experiment: Spreading of BJ-5ta fibroblasts on linear GRRGD-TGT (peer review file). The format is cell-based, human. As to conditions: 100 nM, 1 h. As to the method:
RGT-TGTs is reproduced using the linear RGD, showing that the high tension threshold for cell spreading is not an artifact of ligand cyclization.
Figure R5 | BJ-5ta fibroblasts on linear RGD ligand surfaces. Cells were seeded for one hour on TGTs conjugated […]
with a linear RGD peptide ([…]; GRRGD-TGT). GRRGD-TGT (100 nM) was immobilized on […]
PEG-passivated and neutravidin functionalized surface. GRRGD-54pN was incubated without neutravidin for control. Images (left) and cell area measured from RICM images (right) are shown. Scale bar, 10 μm. […]

The test system of experiment [2] is integrin α5β1 on intact cells. As to conditions: ref Li et al., 2017; read-out: affinity to α5β1 on intact cells; cited from earlier work. The source says:
For inhibition studies we used a different subset of inhibitory IPI and Biogen Fabs with RGD-mimetic heavy chain CDR3 sequences (Supplementary Table 1). […] They show selectivities for αVβ1, αVβ3 and αVβ5 ranging from 160 fold to 2000 fold. […] As we show in Fig.5, even though α5β1 has the highest 316 expression level among all the RGD-binding integrins expressed on BJ-5ta cell, it could not mediate cell 317 adhesion and spreading on the cyclo- ...

Experiment [3] relates to BJ-5ta cells. Nature of the experiment: Percentage of spread cells / cell spreading on TGT surfaces. It counts as cell-based, human. As to the method:
Glass coverslips were densely PEGylated to minimize non-specific interactions such as the binding of cell-secreted extracellular matrix proteins. Coverslips cleaned by piranha etching solution (a 3:1 mixture of sulfuric acid and hydrogen peroxide) were incubated in silanization solution (UCT, 1760-24-3; 2% aminosilane and 5% acetic acid in methanol) for 30 min and reacted with a mixture of Polyethylene glycol (PEG) with and without biotin (1:19, 150 mg/ml; Laysan Bio, Biotin-PEG-SVA-5000 and MPEG-SVA-5000) for 4 h. Surfaces were washed thoroughly and dried using nitrogen gas after each step. A 3D-printed dish (PLA) or a silicon gasket (Grace Bio Labs, 103280) was attached to the coverslip to form a dish. Neutravidin (Thermo Fisher scientific, 31000; 0.4 mg/ml) was added to the dish for 10 min and washed out thoroughly. The dish was emptied and a droplet (3 µL) of TGT solution (100 nM unless specified otherwise) was placed on the coverslip for 10 min in a humid condition to locally immobilize TGT. For the lateral drift correction for time-resolved TGT rupture analysis, biotin-coated gold nanoparticles (Luna Nanotech, GNP-BIOT-100-2-04; 100 nm) were sparsely immobilized as fiducial markers. For protein ligand coating, protein (50 ug/ml in PBS) was incubated in glass bottomed imaging dishes for 1 h at RT without additional passivation.
The cells were gently harvested by washing in PBS for 1 min, incubating with 0.05% trypsin for 3 min, and then neutralizing with cell culture medium (FBS 10%). The cells were spun down and resuspended with Leibovitz’s L-15 Medium (Gibco, 21083027) supplemented with 2 g/L glucose, then seeded on the TGT surface at an approximate density of 30 cells/mm^2. For integrin inhibition experiments, cells were incubated with Fab for 5 min before seeding. For cell immobilization experiments, cells were incubated with 1 nM Cholesterol-PEG-Biotin (Nanosoft Polymers, 3084-2000) for 5 min, followed by washes by centrifugation to remove biotin in solution before seeding. The imaging area was humidified and the temperature was maintained at 37 °C. A Nikon Eclipse Ti microscope equipped with Xenon arc lamp, Nikon perfect focus system, custom total internal reflection fluorescence microscopy (TIRFM) module, and custom reflection interference contrast microscopy (RICM) module was driven by Elements software. Dark regions in RICM show where cells have closely adhered to the surface (≪300 nm gap). Nikon 10X objective (CFI60 Plan Fluor) and 60X objective (CFI60 Apochromat TIRF) with DIC filter sets were used. […] Images were recorded using an electron-multiplying charge-coupled device (EMCCD; Andor iXon 888).
Single-cell data were obtained from multiple independent sample preparations for each condition as specified. Percentage of spread cells was obtained from three independent experiments. Statistical analyses were performed using MATLAB software. Two-sided (two sample) t-test was used for two group comparisons. Each group was compared with the control group unless specified otherwise. Representative micrographs are selected from at least two independent experiments.

The target of experiment [4] is T1, EO state of integrin α5β1 (Homo sapiens, UniProt P05556+P08648).
T1 construct: endogenous in cells; host or cells: K562 wild type
T1 sequence (P08648 42-894 limits assumed): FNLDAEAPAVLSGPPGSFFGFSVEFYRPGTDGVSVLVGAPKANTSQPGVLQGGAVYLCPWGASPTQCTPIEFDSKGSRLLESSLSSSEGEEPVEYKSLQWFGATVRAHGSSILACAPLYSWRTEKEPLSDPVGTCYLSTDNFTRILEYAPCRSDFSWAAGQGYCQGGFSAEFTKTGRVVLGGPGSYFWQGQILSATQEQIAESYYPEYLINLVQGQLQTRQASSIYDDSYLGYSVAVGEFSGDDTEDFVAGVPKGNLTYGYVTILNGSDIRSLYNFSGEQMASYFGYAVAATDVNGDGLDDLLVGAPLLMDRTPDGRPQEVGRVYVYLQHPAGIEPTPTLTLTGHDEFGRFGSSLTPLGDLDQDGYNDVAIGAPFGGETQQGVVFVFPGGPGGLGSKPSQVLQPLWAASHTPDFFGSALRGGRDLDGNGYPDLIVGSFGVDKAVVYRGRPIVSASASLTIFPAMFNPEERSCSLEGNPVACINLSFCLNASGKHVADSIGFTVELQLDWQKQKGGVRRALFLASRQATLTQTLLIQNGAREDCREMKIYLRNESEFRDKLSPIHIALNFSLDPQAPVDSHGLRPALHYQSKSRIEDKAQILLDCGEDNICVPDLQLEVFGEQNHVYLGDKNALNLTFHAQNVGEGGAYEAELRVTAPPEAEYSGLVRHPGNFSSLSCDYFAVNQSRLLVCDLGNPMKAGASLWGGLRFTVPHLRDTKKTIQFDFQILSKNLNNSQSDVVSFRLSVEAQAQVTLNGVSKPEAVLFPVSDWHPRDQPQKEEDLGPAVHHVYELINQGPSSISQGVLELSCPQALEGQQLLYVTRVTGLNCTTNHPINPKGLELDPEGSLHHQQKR
T1 sequence (P08648 895-1049 partner limits assumed): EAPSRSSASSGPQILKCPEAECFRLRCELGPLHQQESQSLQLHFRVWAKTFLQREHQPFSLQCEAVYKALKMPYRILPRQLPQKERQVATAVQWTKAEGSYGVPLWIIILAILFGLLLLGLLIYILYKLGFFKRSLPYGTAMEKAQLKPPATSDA
T1 sequence (P05556 21-798): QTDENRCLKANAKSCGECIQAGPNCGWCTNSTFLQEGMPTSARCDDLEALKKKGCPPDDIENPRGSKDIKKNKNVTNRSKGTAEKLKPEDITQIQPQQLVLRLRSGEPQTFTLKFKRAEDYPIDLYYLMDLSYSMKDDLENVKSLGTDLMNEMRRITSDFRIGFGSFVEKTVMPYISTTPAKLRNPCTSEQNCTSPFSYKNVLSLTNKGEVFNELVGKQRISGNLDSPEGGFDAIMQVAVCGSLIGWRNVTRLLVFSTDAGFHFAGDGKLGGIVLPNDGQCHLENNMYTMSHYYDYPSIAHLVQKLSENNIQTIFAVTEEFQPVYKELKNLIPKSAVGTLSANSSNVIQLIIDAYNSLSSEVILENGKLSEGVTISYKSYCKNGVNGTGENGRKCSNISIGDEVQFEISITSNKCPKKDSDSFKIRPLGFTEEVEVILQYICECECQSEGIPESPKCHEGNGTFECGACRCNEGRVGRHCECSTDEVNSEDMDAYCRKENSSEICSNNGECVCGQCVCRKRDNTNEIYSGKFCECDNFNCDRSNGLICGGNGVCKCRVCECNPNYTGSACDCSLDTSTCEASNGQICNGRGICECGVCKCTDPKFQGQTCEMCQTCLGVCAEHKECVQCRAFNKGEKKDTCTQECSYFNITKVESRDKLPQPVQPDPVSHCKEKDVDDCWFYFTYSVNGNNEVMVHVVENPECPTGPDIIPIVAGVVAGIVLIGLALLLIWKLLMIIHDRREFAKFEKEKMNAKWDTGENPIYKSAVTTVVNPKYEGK
The experiment in a line: Intrinsic affinity for EO state of α5β1 stabilized by 12G10 Fab. The format is binding. Conditions: 2 µM 12G10 Fab versus basal. The source says:
(§1) provided as a Source Data file.
(§2) (3 pictures or pasted objects on this page, not shown here)

The target in experiment [5] is T2, EO state of integrin αVβ1 (Homo sapiens, UniProt P05556+P06756).
T2 construct: expressed in transfected cells
T2 sequence (P06756 31-889 limits assumed): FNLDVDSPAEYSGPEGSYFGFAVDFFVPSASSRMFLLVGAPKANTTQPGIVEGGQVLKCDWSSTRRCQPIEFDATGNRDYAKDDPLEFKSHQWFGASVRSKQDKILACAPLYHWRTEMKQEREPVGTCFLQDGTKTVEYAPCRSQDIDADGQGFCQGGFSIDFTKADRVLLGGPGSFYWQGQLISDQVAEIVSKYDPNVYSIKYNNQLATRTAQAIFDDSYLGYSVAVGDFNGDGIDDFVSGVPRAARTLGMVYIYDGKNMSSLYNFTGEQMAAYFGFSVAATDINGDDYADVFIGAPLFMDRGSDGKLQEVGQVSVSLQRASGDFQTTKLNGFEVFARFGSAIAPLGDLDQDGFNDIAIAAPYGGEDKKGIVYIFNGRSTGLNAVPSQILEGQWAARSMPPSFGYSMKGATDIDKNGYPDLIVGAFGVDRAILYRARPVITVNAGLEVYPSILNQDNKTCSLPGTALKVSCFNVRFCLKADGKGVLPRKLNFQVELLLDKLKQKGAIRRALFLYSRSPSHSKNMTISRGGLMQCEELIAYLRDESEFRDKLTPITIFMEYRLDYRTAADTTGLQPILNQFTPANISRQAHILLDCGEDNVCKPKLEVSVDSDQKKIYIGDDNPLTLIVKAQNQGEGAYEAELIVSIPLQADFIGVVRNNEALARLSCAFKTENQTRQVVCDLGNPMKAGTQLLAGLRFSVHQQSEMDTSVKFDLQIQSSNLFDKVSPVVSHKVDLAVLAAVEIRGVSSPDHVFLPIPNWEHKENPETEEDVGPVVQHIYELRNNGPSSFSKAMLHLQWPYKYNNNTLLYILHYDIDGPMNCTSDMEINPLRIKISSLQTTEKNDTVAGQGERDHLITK
T2 sequence (P06756 891-1048 partner limits assumed): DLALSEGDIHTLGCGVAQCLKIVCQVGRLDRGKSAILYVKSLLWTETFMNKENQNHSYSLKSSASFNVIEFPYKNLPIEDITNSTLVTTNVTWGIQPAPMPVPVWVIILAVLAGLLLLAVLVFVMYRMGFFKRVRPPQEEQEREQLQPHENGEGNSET
T2 sequence (P05556 21-798): as the sequence (P05556 21-798) above
The experiment in a line: Intrinsic affinity for EO state of αVβ1 stabilized by 12G10 Fab. It counts as binding. As to conditions: 2 µM 12G10 Fab versus basal.
Excerpt: as §1, §2

Experiment [6] deals with extended-open β1 integrin on BJ-5ta cells. The experiment in a line: β1 integrin activation: number and density of bound AF647-12G10 Fab on biotin-PEG-cholesterol immobilized cells. The format is cell-based, human.
Procedure: Cholesterol (CLS) linked to biotin with PEG (~13 nm) immobilizes cells on neutravidin and TGT-coated surfaces. b Cell images and AF647-12G10 Fab (20 nM) signal 1 h after seeding. Scale bar, 10 µm. c–e Cell area and 12G10 Fab signal were measured 30 min after seeding (n = 43, 55, 62, 69, 21, 29; 83, 59, 83, 92, 68, 62 cells from two independent experiments). c Close-contact enclosed area of cells. […] Fluorescent Fab signal was calibrated by analyzing stepwise signal increase due to nonspecific Fab binding to surfaces outside the area imaged with cells (Supplementary Fig. 4a). e Density of 12G10 Fab for each cell. Lines show mean ± SE. Two-sided t-test for p-values. Not significant (ns), p > 0.05.
The cells were gently harvested by washing in PBS for 1 min, incubating with 0.05% trypsin for 3 min, and then neutralizing with cell culture medium (FBS 10%). […] A Nikon Eclipse Ti microscope equipped with Xenon arc lamp, Nikon perfect focus system, custom total internal reflection fluorescence microscopy (TIRFM) module, and custom reflection interference contrast microscopy (RICM) module was driven by Elements software. […] Images were recorded using an electron-multiplying charge-coupled device (EMCCD; Andor iXon 888). […]
The subject of experiment [7] is BJ-5ta cells. The experiment in a line: Percentage of cells producing rupture signals on RGD-12pN with or without soluble cRGDfK. The format is cell-based, human. Conditions: RGD-12pN (BHQ2-Cy3, 100 nM); soluble ligand 100 µM; n = 4. An excerpt: Source data are provided as a Source Data file. […]
Experiment [8] deals with integrin α5β1 (EO state). Conditions: extended-open conformation; read-out: affinity for α5β1 in extended-open conformation; cited from earlier work. An excerpt: The response of the cytoskeletal machinery is thus not predetermined by cell type, but is highly regulatable by the type of ligand outside the cell. […] Further, by using 264 the specific panels of antibodies, the authors claim that RGD-based adhesion and spreading is dominated by 265 aVb1 integrin in their RGD-dependent system.

As for GRRGDLATIHGGK [GRRGD-TGT], the “spreading on linear RGD-TGT (in words)” value in experiment [1] is “no spreading for weak TGTs, with tension tolerance below 40 pN”.

For the compound fibronectin, the Kd in experiment [2] is 1100 nM.

As to `N=C(N)NCCC[C@@H]1NC(=O)[C@H](CCCCN)NC(=O)[C@@H](Cc2ccccc2)NC(=O)[C@H](CC(=O)O)NC(=O)CNC1=O` [cRGDfK, cyclo[Arg-Gly-Asp-D-Phe-Lys]], the “tension threshold for cell spreading” value in experiment [3] (1 h, nominal Ttol) is over 33 pN. The “spread cells (fraction), sheet 1c” value in experiment [3] (TGT 1 nM) is 0.00565; in experiment [3] (TGT 3 nM), 0.03764; in experiment [3] (TGT 10 nM), 0.4242; in experiment [3] (TGT 30 nM), 0.8968; in experiment [3] (TGT 100 nM), 0.9524. Besides, the “Spread cells on TGT, 12pN” value in experiment [3] (Ttol 12pN, 1 h, mean, SE in own column, n = 3 independent experiments, given as fraction) is recorded as 0.00901. The “Spread cells on TGT, 23pN” value in experiment [3] (Ttol 23pN, 1 h, mean, n = 3, given as fraction) was found to be 0.05. Besides, the “Spread cells on TGT, 33pN” value in experiment [3] (Ttol 33pN, 1 h, mean, n = 3, given as fraction) was 0.0778. Besides, the “Spread cells on TGT, 43pN” value in experiment [3] (Ttol 43pN, 1 h, mean, n = 3, given as fraction) is 0.8932. Besides, the “Spread cells on TGT, 54pN” value in experiment [3] (Ttol 54pN, 1 h, mean, n = 3, given as fraction) amounted to 0.9524. The “EO affinity over basal affinity, α5β1” value in experiment [4] is reported as 7000 fold. Besides, the “EO affinity over basal affinity, αVβ1” value in experiment [5] is reported as 60 fold. Also, in experiment [6], the “force needed for activation of β1 integrin to high affinity state” value is listed as “less than 12 pN”. Moreover, the “rupture signal with soluble cRGDfK (in words)” value in experiment [7] is reported as “No cellproduced a significant rupture signal”.

Regarding cyclic-ACRGDGWCGK (disulfide), the Kd in experiment [8] was 2.2 ± 0.5 nM.
